Drawing on ChEMBL document CHEMBL2007661, “Compounds: GSK PKIS; Assays: UNC Frye lab” (2012), this text covers inhibition for 32 compounds.

The target in assay [1] is T1, Tyrosine-protein kinase Mer (Homo sapiens) (UniProt Q12866).
T1 sequence (whole entry): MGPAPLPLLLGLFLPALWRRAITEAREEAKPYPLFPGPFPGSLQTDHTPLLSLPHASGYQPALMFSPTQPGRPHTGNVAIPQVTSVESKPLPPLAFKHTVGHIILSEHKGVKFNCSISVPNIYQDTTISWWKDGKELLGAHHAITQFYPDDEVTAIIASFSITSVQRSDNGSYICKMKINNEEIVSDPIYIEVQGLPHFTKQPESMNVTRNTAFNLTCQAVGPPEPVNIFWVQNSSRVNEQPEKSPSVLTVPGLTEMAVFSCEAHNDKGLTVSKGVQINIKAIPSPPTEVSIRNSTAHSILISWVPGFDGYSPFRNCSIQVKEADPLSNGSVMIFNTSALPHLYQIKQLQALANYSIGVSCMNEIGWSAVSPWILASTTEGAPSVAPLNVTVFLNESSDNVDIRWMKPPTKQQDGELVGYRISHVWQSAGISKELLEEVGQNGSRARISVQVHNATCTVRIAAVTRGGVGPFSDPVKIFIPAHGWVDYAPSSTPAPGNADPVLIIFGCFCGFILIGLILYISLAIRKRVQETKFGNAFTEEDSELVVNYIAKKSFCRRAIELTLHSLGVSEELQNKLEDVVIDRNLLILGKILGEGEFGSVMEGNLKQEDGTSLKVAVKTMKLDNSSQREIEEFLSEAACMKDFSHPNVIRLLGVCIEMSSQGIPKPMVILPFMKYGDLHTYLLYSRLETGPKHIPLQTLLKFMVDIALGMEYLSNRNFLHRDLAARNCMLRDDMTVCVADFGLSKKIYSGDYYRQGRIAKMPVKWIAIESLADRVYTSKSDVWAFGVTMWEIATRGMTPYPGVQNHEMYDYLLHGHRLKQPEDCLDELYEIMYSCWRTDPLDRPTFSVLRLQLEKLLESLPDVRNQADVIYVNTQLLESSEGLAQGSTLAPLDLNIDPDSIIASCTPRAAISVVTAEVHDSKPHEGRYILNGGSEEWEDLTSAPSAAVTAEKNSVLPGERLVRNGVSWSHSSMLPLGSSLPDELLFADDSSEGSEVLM
To be noted: at 10 µM.

The target of assay [2] is T2, Serine/threonine-protein kinase TBK1 (Homo sapiens) (UniProt Q9UHD2).
T2 sequence (whole entry): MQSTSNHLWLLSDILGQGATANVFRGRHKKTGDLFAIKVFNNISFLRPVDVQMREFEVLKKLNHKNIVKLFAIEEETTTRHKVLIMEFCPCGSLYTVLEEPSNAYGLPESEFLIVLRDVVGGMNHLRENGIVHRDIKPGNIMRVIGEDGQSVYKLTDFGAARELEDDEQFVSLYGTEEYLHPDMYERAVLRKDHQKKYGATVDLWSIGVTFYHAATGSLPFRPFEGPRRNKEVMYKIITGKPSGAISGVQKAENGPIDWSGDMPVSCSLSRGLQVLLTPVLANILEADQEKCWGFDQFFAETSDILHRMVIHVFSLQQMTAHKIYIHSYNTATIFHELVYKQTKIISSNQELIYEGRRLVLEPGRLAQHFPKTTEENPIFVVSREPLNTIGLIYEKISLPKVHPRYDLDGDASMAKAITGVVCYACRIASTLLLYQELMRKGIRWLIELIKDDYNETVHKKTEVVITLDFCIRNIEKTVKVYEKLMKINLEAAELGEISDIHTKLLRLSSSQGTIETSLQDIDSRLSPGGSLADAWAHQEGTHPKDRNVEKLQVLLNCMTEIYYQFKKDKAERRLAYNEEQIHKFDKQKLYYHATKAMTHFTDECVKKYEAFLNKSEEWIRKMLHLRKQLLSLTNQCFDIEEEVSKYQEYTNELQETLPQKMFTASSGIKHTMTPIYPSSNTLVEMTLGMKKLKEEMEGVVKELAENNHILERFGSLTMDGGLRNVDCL
Particulars: at 1 µM.

The structures appear in SMILES notation. “And” between values parts separate entries of the source, which are not always exact repeats. Equal values may be shown once.

One may read the inhibition as the relative decrease from the control value, in per cent. Take `COc1ccc(-c2nn3ncccc3c2-c2ccnc(Nc3ccc(F)c(F)c3)n2)cc1`: the inhibition in assay [1] is -4%; in assay [2], -6% and -9%.
For `Fc1cccc(COc2ccc(Nc3ncnc4sc(-c5ccco5)cc34)cc2Cl)c1`, the inhibition in assay [1] is 78%; in assay [2], 41% and 42%.
As to `COc1cc(/C=N/Nc2ncnc3[nH]ncc23)ccc1O`, the inhibition in assay [1] was 6%; in assay [2] it was 31% and 33%.
Take `Cc1ccc2c(c1)/C(=N/Nc1ccc(S(N)(=O)=O)cc1)C(=O)N2`: the inhibition in assay [1] is 66%; in assay [2], -2% and 3%.
For the compound `Clc1ccc(CNc2nccc(-c3cnn4ncccc34)n2)cc1`, the inhibition in assay [1] is -4%; in assay [2], -1% and 0%.
Consider `COc1cc(Nc2ncc3c(C)nc(-c4cccc(Oc5ccccc5)c4)n3n2)cc(OC)c1OC`, for which the inhibition in assay [1] was -6%; in assay [2] it was 75% and 71%.
For the compound `FC(F)(F)c1ccc(-c2nn3ncccc3c2-c2ccnc(Nc3ccc4c(c3)OCCO4)n2)cc1`, the inhibition is -6% in assay [1]; -5% and -7% in assay [2].
For the compound `Cc1ccc(C(=O)NC2CCC2)cc1-c1ccc(C(=O)NCC2CC2)cc1`, the inhibition is 2% in assay [1]; -4% and -6% in assay [2].
With `Cc1cc(O)cc(C)c1/C=C/c1cncc(C(=O)OC(C)(C)C)c1`, the inhibition in assay [1] is -2%; in assay [2] it was 0% and -2%.
Consider `CCn1c(-c2nonc2N)nc2ccc(F)cc21`, for which the inhibition in assay [1] is -4%; in assay [2], 2% and 1%.
With `NS(=O)(=O)c1ccc(-c2cc3ccncc3cc2OCc2ccccc2)cc1`, the inhibition was -3% in assay [1]; -1% and 0% in assay [2].
`COc1cc2c(cc1Nc1nc(Nc3cccc(F)c3C(N)=O)c3cc[nH]c3n1)N(C(=O)CN1CCN(C(C)C)CC1)CC2`: the inhibition in assay [1] is -7%; in assay [2], -2% and -6%.
For `Nc1nccc(-c2c(-c3ccc(F)cc3)ncn2CCCN2CCOCC2)n1`, the inhibition in assay [1] is 4%; in assay [2], 0% and 1%.
For the compound `NC(=O)Cc1ccccc1Oc1nccc(-c2c(-c3ccc(F)cc3)ncn2C2CCNCC2)n1`, the inhibition in assay [1] was 71%; in assay [2], -1% and -2%.
Regarding `COC(=O)c1cncc(/C=C/c2c(C)cc(O)cc2C)c1`, the inhibition in assay [1] is -6%; in assay [2], -1% and 2%.
For `N#Cc1c(NC(=O)c2ccc(F)cc2)sc2c1CCCC2`, the inhibition in assay [1] was 1%; in assay [2] it was -4% and -6%.
As for `O=S(=O)(CCOCc1ccc(-c2ccc3ncnc(Nc4ccc(OCc5cccc(F)c5)c(Cl)c4)c3c2)o1)c1ccccc1`, the inhibition in assay [1] was 5%; in assay [2], -2% and 1%.
As for `COc1ccccc1-c1cc(/C=C2\C(=O)Nc3ncc(Br)cc32)cc(Br)c1O`, the inhibition in assay [1] was -2%; in assay [2], 15% and 7%.
For the compound `Cc1ccc(C(=O)NC(C)C)cc1-c1ccc(C(=O)NCC2CC2)cc1`, the inhibition in assay [1] is -2%; in assay [2] it was -1% and -2%.
In the case of `COc1cc(Nc2nccc(Nc3ccc4c(C)n[nH]c4c3)n2)cc(OC)c1OC`, the inhibition was -5% in assay [1]; 33% and 30% in assay [2].
As for `CCn1c(-c2nonc2N)nc2c(C#CC(C)(C)O)nc(OC[C@@H](N)c3ccccc3)cc21`, the inhibition in assay [1] was -1%; in assay [2], 6% and 7%.
`COc1cc(N2CCN(C(C)C)CC2)ccc1Nc1nc(Nc2ccc(F)cc2C(N)=O)c2cc[nH]c2n1`: the inhibition is 4% in assay [1]; 16% and 10% in assay [2].
Turning to `Cc1ccc2c(-c3ccnc(Nc4cccc(C(F)(F)F)c4)n3)c(-c3ccccc3)nn2n1`, the inhibition in assay [1] was 4%; in assay [2], -1% and 1%.
As for `COC(=O)Nc1nc2cc(Oc3ccc(NC(=O)Nc4cccc(Br)c4)cc3)ccc2[nH]1`, the inhibition in assay [1] is 4%; in assay [2], 0% and 2%.
With `Nc1nc(-c2cccc(Cl)c2)c(-c2ccc3ncccc3n2)s1`, the inhibition in assay [1] was 1%; in assay [2], 5% and 7%.
Consider `Nc1nccc(-c2c(-c3ccc(F)cc3)ncn2C2CCC(O)CC2)n1` (centres undefined), for which the inhibition in assay [1] is 29%; in assay [2] it was 0% and -2%.
Turning to `COc1ccc2ncn(-c3cc(O[C@H](C)c4ccccc4Cl)c(C(N)=O)s3)c2c1`, the inhibition in assay [1] is 86%; in assay [2], 0% and -4%.
Regarding `N#Cc1cccc(Nc2ncc(-c3ccccc3)o2)c1`, the inhibition in assay [1] was 80%; in assay [2] it was 4%.
As to `O=C(O[C@H]1CN[C@H](C#Cc2cc3ncnc(Nc4ccc(Cc5ccccc5)cc4)c3s2)C1)N1CCOCC1`, the inhibition in assay [1] was 5%; in assay [2], 14% and 20%.
Turning to `CN1CCC(n2cnc(-c3ccc(F)cc3)c2-c2ccnc(NCCO)n2)CC1`, the inhibition in assay [1] was -2%; in assay [2], -6% and -9%.
For the compound `COc1cc2ncn(-c3cc(O[C@@H](C)c4ccccc4Cl)c(C(N)=O)s3)c2cc1OC`, the inhibition in assay [1] is 69%; in assay [2], 54% and 57%.
With `O=C1NC(=O)C(c2cccc(Cl)c2)=C1Nc1ccc(Cl)c(C(=O)O)c1`, the inhibition in assay [1] was 27%; in assay [2], 19% and 18%.
